Data on four compounds can be found in ChEMBL document CHEMBL1152775, “Effect of 3,4-ethylenedioxy-extension of thiophene core on the DNA/RNA binding properties and biological activity of bisbenzimidazole amidines” (Bioorg Med Chem, 2009).

Molecules are shown by their SMILES. The source made the active and inactive calls. The rule behind the calls is not given here. Bounds are passed on as bounds.

For test [1], the system named is Calf thymus DNA. Kind of test: Binding affinity to calf thymus double stranded DNA assessed as change in melting temperature at drug to DNA ratio of 0.3 by thermal denaturation study. To be noted: Bos taurus. The class given is nucleic-acid assay.
Test [2] relates to MCF7. Kind of test: Antiproliferative activity against human MCF7 cells at 0.1 to 100 uM after 72 hrs by MTT assay. The class given is functional, cell-based.
Test [3] deals with Nucleic Acid. Put plainly: Binding affinity to poly A-poly U double stranded RNA assessed as change in melting temperature at […] of 0.3 by thermal denaturation study. The class given is nucleic-acid assay.
Test [4] relates to Calf thymus DNA. Kind of test: Binding affinity to calf thymus double stranded DNA assessed as change in melting temperature at drug to DNA ratio of 0.1 by thermal denaturation study. The class given is nucleic-acid assay. To be noted: Bos taurus.
Test [5] deals with Nucleic Acid. Kind of test: Binding affinity to poly A-poly U double stranded RNA assessed as change in melting temperature at […] of 0.2 by thermal denaturation study. The class given is nucleic-acid assay.
In test [6] the test system is Calf thymus DNA. Kind of test: Binding affinity to calf thymus double stranded DNA minor groove at drug to DNA ratio of 0 to 0.2 by CD spectroscopy. The class given is nucleic-acid assay. The settings on record: Bos taurus.
Test [7] concerns Calf thymus DNA. Kind of test: Binding affinity to calf thymus double stranded DNA by UV visible spectroscopy. The class given is nucleic-acid assay. The settings on record: Bos taurus.
Test [8] has as its system Calf thymus DNA. Put plainly: Binding affinity to calf thymus double stranded DNA assessed as change in melting temperature at drug to DNA ratio of 0.05 by thermal denaturation study. The class given is nucleic-acid assay. The settings on record: Bos taurus.
Test [9] in a line: Binding affinity to poly A-poly U double stranded RNA by UV visible spectroscopy.
A short description of test [10]: Binding affinity to poly A-poly U double stranded RNA by CD spectroscopy.
Test [11] deals with Calf thymus DNA. Kind of test: Binding affinity to calf thymus double stranded DNA assessed as change in melting temperature at drug to DNA ratio of 0.2 by thermal denaturation study. The class given is nucleic-acid assay. To be noted: Bos taurus.
For test [12], the species on record is Bos taurus. Kind of test: Ratio of IC50 of ethidium bromide to IC50 of drug for calf thymus DNA by ethidium bromide displacement assay.
For test [13], the system named is MIA PaCa-2. Kind of test: Antiproliferative activity against human MIAPaCa2 cells at 0.1 to 100 uM after 72 hrs by MTT assay. The class given is functional, cell-based.
Test [14] concerns NCI-H358. Kind of test: Antiproliferative activity against human NCI-H358 cells at 0.1 to 100 uM after 72 hrs by MTT assay. The class given is functional, cell-based.
Test [15] relates to HeLa. Put plainly: Cell cycle distribution in human HeLa cells assessed as accumulation at S phase at 1 uM after 48 hrs by propidium iodide-based flow cytometry. The class given is functional.
In test [16] the test system is HEp-2. Put plainly: Antiproliferative activity against human Hep2 cells at 0.1 to 100 uM after 72 hrs by MTT assay. The class given is functional, cell-based.
The subject of test [17] is HeLa. Kind of test: Cell cycle distribution in human HeLa cells assessed as accumulation at G0/G1 phase at 1 uM after 48 hrs by propidium iodide-based flow cytometry. The class given is functional.
Test [18] relates to HeLa. Put plainly: Cell cycle distribution in human HeLa cells assessed as accumulation at S phase at 1 uM after 72 hrs by propidium iodide-based flow cytometry. The class given is functional.
Test [19] concerns HEp-2. Kind of test: Antiproliferative activity against human Hep2 cells at 1 uM after 72 hrs by MTT assay relative to control. The class given is functional. The settings on record: HEp-2, 72 h.
Test [20] concerns HeLa. Kind of test: Cell cycle distribution in human HeLa cells assessed as accumulation at G2/M phase at 1 uM after 48 hrs by propidium iodide-based flow cytometry. The class given is functional.
Test [21] concerns HeLa. Kind of test: Cell cycle distribution in human HeLa cells assessed as accumulation at G0/G1 phase at 1 uM after 72 hrs by propidium iodide-based flow cytometry. The class given is functional.
In test [22] the test system is HeLa. Put plainly: Antiproliferative activity against human HeLa cells at 0.1 to 100 uM after 72 hrs by MTT assay. The class given is functional, cell-based.
Test [23] deals with HeLa. Kind of test: Antiproliferative activity against human HeLa cells at 1 uM after 72 hrs by MTT assay relative to control. The class given is functional.
Test [24] has as its system Nucleic Acid. Kind of test: Binding affinity to poly A-poly U double stranded RNA assessed as change in melting temperature at […] of 0.1 by thermal denaturation study. The class given is nucleic-acid assay.
In test [25] the test system is AGS. Put plainly: Antiproliferative activity against human AGS cells at 0.1 to 100 uM after 72 hrs by MTT assay. The class given is functional, cell-based.
For test [26], the system named is Caco-2. Put plainly: Antiproliferative activity against human Caco-2 cells at 0.1 to 100 uM after 72 hrs by MTT assay. The class given is functional, cell-based.
Test [27] has as its system HT-29. Kind of test: Antiproliferative activity against human HT-29 cells at 0.1 to 100 uM after 72 hrs by MTT assay. The class given is functional, cell-based.
In test [28] the test system is MCF7. Kind of test: Antiproliferative activity against human MCF7 cells at 0.1 uM after 72 hrs by MTT assay relative to control. The class given is functional. To be noted: MCF7, 72 h.
Test [29] concerns Trypanosoma cruzi. Put plainly: Antitrypanosomal activity against Trypanosoma cruzi clone 14 epimastigotes after 8 days. The class given is functional, organism-based. The settings on record: 192 h.
Test [30] has as its system HeLa. Kind of test: Cell cycle distribution in human HeLa cells assessed as accumulation at G2/M phase at 1 uM after 72 hrs by propidium iodide-based flow cytometry. The class given is functional.
The subject of test [31] is HeLa. Kind of test: Cell cycle distribution in human HeLa cells assessed as accumulation at G2/M phase at 1 uM after 24 hrs by propidium iodide-based flow cytometry. The class given is functional.
Test [32] relates to Trypanosoma cruzi. Kind of test: Antitrypanosomal activity against Trypanosoma cruzi clone 14 epimastigotes on day 5. To be noted: 120 h. The class given is functional, organism-based.
For test [33], the system named is HeLa. Kind of test: Cell cycle distribution in human HeLa cells assessed as accumulation at S phase at 10 uM after 48 hrs by propidium iodide-based flow cytometry. The class given is functional.
For test [34], the system named is HeLa. Put plainly: Cell cycle distribution in human HeLa cells assessed as accumulation at G2/M phase at 10 uM after 24 hrs by propidium iodide-based flow cytometry. The class given is functional.
Test [35] concerns HeLa. Kind of test: Cell cycle distribution in human HeLa cells assessed as accumulation at G2/M phase at 10 uM after 72 hrs by propidium iodide-based flow cytometry. The class given is functional.
In test [36] the test system is HeLa. Put plainly: Cell cycle distribution in human HeLa cells assessed as accumulation at G0/G1 phase at 10 uM after 48 hrs by propidium iodide-based flow cytometry. The class given is functional.
Test [37] has as its system HeLa. Put plainly: Cell cycle distribution in human HeLa cells assessed as accumulation at G0/G1 phase at 10 uM after 72 hrs by propidium iodide-based flow cytometry. The class given is functional.
Test [38] relates to HeLa. Put plainly: Cell cycle distribution in human HeLa cells assessed as accumulation at G2/M phase at 10 uM after 48 hrs by propidium iodide-based flow cytometry. The class given is functional.
Test [39] relates to HeLa. Kind of test: Cell cycle distribution in human HeLa cells assessed as accumulation at S phase at 10 uM after 72 hrs by propidium iodide-based flow cytometry. The class given is functional.

For the compound `N=C(N)c1ccc2nc(-c3sc(-c4nc5ccc(C(=N)N)cc5[nH]4)c4c3OCCO4)[nH]c2c1`, the ΔTm is 12.9 °C in [1]; -0.9 °C in [3]; 14.4 °C in test [4]; -0.3 °C in test [5]; 12.7 °C in test [8]; 13.9 °C in [11]. The result in [2], in test [6], in test [7], in test [9] and in [10] was Active. In addition, in [12], the Ratio IC50 stood at 0.48.

`CC(C)NC(=N)c1ccc2nc(-c3sc(-c4nc5ccc(C(=N)NC(C)C)cc5[nH]4)c4c3OCCO4)[nH]c2c1.Cl.Cl`: the result in test [13], in test [14], in test [2], in [16], in test [6] and in test [7] was Active. Further, the outcome in test [9], in test [22], in test [10], in [25], in test [26] and in [27] was Active. Moreover, the result in test [31] was Active. In addition, the Activity in [15] stood at 22.4%; in test [17], 46.9%; in test [18] it was 49.8%; in test [20], 35%; in test [21], 30.7%; in [30], 15.2%. Also, the ΔTm in test [4] is over 15.4 °C; in test [5], 0.8 °C; in [8], 11.7 °C; in test [24], 0.9 °C; in [11] it was over 15.4 °C. Moreover, the inhibition at 1 µM in test [19] was determined as 80%; in [23], 40%. The compound also had an inhibition at 0.1 µM in test [28] of 40%. Further, the IC50 is 2.4 µM in test [29] and 4.25 µM in test [32]. In test [12], the Ratio IC50 is 0.38.

Turning to `c1cc2nc(-c3sc(-c4nc5ccc(C6=NCCN6)cc5[nH]4)c4c3OCCO4)[nH]c2cc1C1=NCCN1`, the ΔTm was 12.3 °C in test [1]; -0.2 °C in test [3]; 11.9 °C in test [4]; 0.3 °C in test [5]; 12.2 °C in [8]; 0.4 °C in test [24]. For the same compound, in test [11], the shift in melting temperature (ΔTm) worked out at 11.4 °C. Besides, the result in [2], in test [6], in test [7], in [9] and in test [10] was Active. For the same compound, the Ratio IC50 in [12] was found to be 0.38.

As to `CN1CCN(c2ccc3[nH]c(-c4ccc5[nH]c(-c6ccc(O)cc6)nc5c4)nc3c2)CC1` [HOECHST 33258], the Activity is 23.4% in test [33]; 29.9% in test [35]; 33.6% in [36]; 43.1% in [37]; 23.9% in test [38]; 46.3% in [39]. In addition, the outcome in [34] was inactive. Also, in test [2], the result was Active.
